Measured values reported in ChEMBL document CHEMBL5537191, “Rebamipide and Derivatives are Potent, Selective Inhibitors of Histidine Phosphatase Activity of the Suppressor of T Cell Receptor Signaling Proteins” (J Med Chem, 2024).
Active and inactive are the calls of the source. No cut-off for these calls is given here.

Legend:
[1] = molecular target: T1, Tyrosine-protein phosphatase non-receptor type 1 (Homo sapiens) (UniProt P18031); test: Inhibition of recombinant human PTP-1B (1 to 321 residues) phosphatase activity expressed in Escherichia coli incubated for 20 mins by spectrophotometric analysis
T1 sequence (whole entry): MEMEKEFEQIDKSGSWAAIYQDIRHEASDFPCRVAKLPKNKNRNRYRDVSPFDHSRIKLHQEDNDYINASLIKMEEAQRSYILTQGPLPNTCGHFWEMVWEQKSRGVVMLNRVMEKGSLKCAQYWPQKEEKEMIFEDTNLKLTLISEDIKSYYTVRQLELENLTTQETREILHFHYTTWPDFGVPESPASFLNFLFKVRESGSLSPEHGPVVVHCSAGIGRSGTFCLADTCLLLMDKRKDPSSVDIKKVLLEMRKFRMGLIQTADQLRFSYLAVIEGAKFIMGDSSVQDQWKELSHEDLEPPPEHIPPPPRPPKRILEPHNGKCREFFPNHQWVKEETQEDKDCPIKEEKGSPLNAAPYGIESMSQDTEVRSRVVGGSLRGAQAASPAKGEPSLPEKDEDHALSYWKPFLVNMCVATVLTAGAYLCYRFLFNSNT

[2] = molecular target: Tyrosine-protein phosphatase non-receptor type 6 (Homo sapiens) (UniProt P29350); test: Inhibition of recombinant human SHP1 (243 to 541 residues) phosphatase activity expressed in Escherichia coli incubated for 20 mins by spectrophotometric analysis
Tyrosine-protein phosphatase non-receptor type 6 (Homo sapiens), sequence (P29350 whole entry, the tested form may be a part): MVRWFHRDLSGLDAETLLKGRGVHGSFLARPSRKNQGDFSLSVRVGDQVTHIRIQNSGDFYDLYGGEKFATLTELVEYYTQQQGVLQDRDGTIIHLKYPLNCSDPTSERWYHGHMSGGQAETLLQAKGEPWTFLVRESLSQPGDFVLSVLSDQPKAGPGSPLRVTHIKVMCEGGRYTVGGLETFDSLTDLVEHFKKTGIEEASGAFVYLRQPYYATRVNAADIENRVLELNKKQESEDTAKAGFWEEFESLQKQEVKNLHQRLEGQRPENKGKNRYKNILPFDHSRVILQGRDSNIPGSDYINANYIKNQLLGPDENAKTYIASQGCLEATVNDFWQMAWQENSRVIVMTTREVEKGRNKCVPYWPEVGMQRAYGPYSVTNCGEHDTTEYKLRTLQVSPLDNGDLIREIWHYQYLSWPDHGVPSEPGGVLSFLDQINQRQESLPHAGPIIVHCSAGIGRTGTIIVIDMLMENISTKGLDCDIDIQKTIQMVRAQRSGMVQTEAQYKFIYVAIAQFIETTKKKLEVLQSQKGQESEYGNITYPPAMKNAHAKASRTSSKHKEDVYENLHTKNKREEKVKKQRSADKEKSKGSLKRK

[3] = species on record: Homo sapiens; test: Inhibition of recombinant STS-1 W505L mutant HP domain (unknown origin)
[4] = molecular target: T2, Ubiquitin-associated and SH3 domain-containing protein A (Homo sapiens) (UniProt P57075); test: Inhibition of human STS-2 HP domain (396 to 657 residues) phosphatase activity expressed in Escherichia coli BL21 (DE3) incubated for 20 mins by spectrophotometric analysis
T2 sequence (whole entry): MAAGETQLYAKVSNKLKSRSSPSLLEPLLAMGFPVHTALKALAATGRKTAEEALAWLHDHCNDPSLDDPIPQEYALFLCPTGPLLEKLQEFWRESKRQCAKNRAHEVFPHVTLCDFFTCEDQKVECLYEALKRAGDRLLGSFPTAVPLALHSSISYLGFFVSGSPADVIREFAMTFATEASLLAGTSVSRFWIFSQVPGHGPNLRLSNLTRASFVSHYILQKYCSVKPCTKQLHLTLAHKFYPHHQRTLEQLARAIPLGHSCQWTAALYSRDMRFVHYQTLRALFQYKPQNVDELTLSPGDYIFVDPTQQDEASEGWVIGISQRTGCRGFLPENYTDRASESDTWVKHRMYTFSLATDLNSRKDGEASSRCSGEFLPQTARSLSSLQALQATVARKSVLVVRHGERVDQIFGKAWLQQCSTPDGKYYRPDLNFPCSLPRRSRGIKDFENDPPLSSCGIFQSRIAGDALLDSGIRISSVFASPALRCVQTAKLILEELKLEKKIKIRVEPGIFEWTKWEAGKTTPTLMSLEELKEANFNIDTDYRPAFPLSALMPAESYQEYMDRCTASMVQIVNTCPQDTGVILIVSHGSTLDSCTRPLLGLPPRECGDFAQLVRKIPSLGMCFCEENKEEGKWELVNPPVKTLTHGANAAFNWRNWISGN

[5] = molecular target: T3, Receptor-type tyrosine-protein phosphatase C (Homo sapiens) (UniProt P08575); test: Inhibition of recombinant human CD45 (604 to 1304 residues) phosphatase activity expressed in baculovirus infected Sf9 incubated for 20 mins by spectrophotometric analysis
T3 sequence (whole entry): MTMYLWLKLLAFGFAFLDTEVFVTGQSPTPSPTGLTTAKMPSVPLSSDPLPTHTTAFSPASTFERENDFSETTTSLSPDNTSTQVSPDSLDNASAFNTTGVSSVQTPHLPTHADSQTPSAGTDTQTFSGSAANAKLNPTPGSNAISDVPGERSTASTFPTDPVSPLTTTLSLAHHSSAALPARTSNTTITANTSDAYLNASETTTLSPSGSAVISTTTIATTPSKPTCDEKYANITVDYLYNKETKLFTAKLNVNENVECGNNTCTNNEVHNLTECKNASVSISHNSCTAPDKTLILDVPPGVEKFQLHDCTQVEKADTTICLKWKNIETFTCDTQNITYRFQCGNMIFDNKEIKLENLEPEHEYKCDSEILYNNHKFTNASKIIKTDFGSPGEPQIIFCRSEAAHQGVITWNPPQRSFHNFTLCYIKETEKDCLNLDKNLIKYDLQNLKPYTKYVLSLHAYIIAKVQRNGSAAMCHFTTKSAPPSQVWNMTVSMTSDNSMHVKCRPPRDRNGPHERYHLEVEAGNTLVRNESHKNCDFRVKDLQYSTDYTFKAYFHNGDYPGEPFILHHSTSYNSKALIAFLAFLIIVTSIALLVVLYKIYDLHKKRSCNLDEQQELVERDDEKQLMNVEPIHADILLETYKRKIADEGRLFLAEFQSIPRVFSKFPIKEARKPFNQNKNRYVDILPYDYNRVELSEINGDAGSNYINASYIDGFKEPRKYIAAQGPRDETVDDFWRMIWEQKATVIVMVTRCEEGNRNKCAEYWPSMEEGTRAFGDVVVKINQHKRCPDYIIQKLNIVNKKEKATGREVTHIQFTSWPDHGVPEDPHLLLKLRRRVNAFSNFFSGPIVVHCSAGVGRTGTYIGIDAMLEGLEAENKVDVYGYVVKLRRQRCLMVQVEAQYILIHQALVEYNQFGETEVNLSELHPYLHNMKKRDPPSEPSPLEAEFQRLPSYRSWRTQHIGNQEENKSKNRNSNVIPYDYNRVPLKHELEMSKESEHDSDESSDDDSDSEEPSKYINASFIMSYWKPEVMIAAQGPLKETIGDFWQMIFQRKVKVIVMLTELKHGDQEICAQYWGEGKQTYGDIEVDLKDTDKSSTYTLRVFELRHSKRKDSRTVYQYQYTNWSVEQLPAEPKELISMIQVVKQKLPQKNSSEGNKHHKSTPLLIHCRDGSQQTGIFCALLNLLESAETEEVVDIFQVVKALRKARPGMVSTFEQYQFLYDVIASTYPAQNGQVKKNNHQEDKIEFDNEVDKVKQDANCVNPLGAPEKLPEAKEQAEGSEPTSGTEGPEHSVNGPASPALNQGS

Which results are given for `O=C(NC(Cc1cc(=O)[nH]c2ccccc12)C(=O)O)c1ccc(Cl)cc1` (stereo not given)?
inhibition [1]: inactive; inhibition [2]: inactive; inhibition [3]: inactive; inhibition [4]: Active; inhibition [5]: inactive
